# From patent US11891405B2, “Furo[3,4-b]pyrrole-containing BTK inhibitor” (CHIA TAI TIANQING PHARMACEUTICAL GROUP CO., LTD., priority 2018, dated 2024)
# What was measured:
# BTK(WT) = BTK(WT) (Homo sapiens, UniProt Q06187); experiment: Screening for BTK inhibitory activity; format: biochemical
# Procedure: 1.1 Screening for BTK Inhibitory Activity
# 350 ng/μL BTK stock solution was diluted with kinase buffer (50 mM HEPES, 10 mM MgCl2, 2 mM DTT, 1 mM EGTA, 0.01% Tween 20), and 6 μL of 1.67× working solution at 0.0334 ng/μL (final concentration: 0.02 ng/μL) was added to each well. Different compounds dissolved in DMSO were added to the wells using a nanoliter pipettor, resulting in the final concentration of 1000 nM to 0.244 nM (4-fold gradient for 7 concentrations in total), and blank control wells (without enzyme) and negative control wells (with enzyme, plus vehicle DMSO) were set, 2 replicate wells for each well. After enzyme was reacted with the compound or vehicle for 30 min, 5×ATP at 100 μM (final concentration: 20 μM) prepared with kinase buffer was mixed with 5×substrate at 0.5 μM (final concentration: 0.1 μM, ULight-poly GT) at a ratio of 1:1, and the mixture was added to each well at 4 μL/well. After being sealed with a film, the plate was incubated at room temperature for 2 h, then 5 μL of 4×EDTA at 40 mM (final concentration: 10 mM) was added to each well. After the plate was incubated for 5 min at room temperature, 5 μL of 4× detection reagent at 8 nM (final concentration: 2 nM, Ab) was added to each well, followed by incubation at room temperature for 1 h. The plate was read using a PE Envision multi-functional microplate reader ([…], emission: 665 nm), and IC50 was calculated by four-parameter fitting.
# [1] = target: T1, BTK (Y223) phosphorylation in Ramos lymphoma cells (Homo sapiens, UniProt Q06187); experiment: BTK (Y223) phosphorylation inhibition at cell level; format: cell-based
# T1 construct: Ramos lymphoma cells in logarithmic growth phase were centrifuged; endogenous in cells; host or cells: Ramos lymphoma cells
# Procedure: EXPERIMENTAL EXAMPLE 2: SCREENING FOR BTK (Y223) PHOSPHORYLATION INHIBITION ACTIVITY AT CELL LEVEL
# 20 μL of 30% hydrogen peroxide was added in 860 μL of double distilled water to prepare 200 mM hydrogen peroxide. PV (sodium pervanadate): 10 μL of 200 mmol/L sodium orthovanadate was reacted with 10 μL of 200 mmol/L hydrogen peroxide in 80 μL of RPMI 1640 complete medium at room temperature for 15 min, and the reaction solution was diluted with RPMI 1640 complete medium to 6 mM. It was prepared freshly prior to use. Ramos lymphoma cells in logarithmic growth phase were centrifuged at 1500 rpm for 3 min using a low-speed centrifuge, added with a proper amount of RPMI 1640 complete medium, resuspended and counted. A proper amount of corresponding culture medium was added to a proper amount of cell suspension to adjust the cell density to about 1-2×10E7 cells/mL. The cells at the above cell density were seeded in a 384-well plate at 20 μL/well, then 5 μL of compound was added to each well, and the plate was incubated for 1 h. 20 mM PV was diluted with RPMI 1640 complete medium to 6 mM (final concentration: 1 mM), added to wells at 5 μL/well according to the plate distribution, and incubated for 15-20 min. The blank group was wells seeded with cells, without compound and PV, and the control group was wells seeded with cells, without compound and with PV. 10 μL of lysis buffer (4×) containing blocking buffer was added immediately and incubated by shaking at room temperature for 30 min. After the mixture was mixed, 16 μL of lysate was transferred to another 384-well small-volume white plate. The plate was added with 4 μL of pre-mixed antibody (vol/vol) in assay buffer, covered, centrifuged to mix well, and incubated overnight at room temperature. The 665 nm/620 nm signal value was detected using a PE Envision multi-functional microplate reader, and IC50 was calculated by four-parameter fitting.
# [2] = Human liver microsome metabolic stability; format: in vitro ADME; conditions: human liver microsomes
# Procedure: 3.1 Human Liver Microsome Assay
# 300 μL of final incubation system: 30 μL of human liver microsomes (protein concentration: 5 mg/mL, XENOTECH, USA), 30 μL of NADPH (10 mM)+MgCl2 (5 mM), 3 μL of the substrate, i.e., the example compound (dissolved in 50% aqueous acetonitrile solution, 100 μM), and 237 μL of PBS buffer, wherein the proportion of the organic solvent (acetonitrile) was 0.5%. Each tube was added with 270 μL of a mixed solution of substrate and enzyme, and after being pre-incubated at 37° C. for 5 min, added with 30 μL of NADPH+MgCl2. Then 50 μL of the mixture was taken at 0 min, 15 min, 30 min and 60 min, and added with 300 μL of diazepam glacial acetonitrile (20 ng/mL) containing an internal standard to quench the reaction. The reaction mixture was vortexed for 5 min, and centrifuged (13,000 rpm, 4° C.) for 10 min. 100 μL of supernatant was pipetted into a sample vial, from which 1 μL of supernatant was injected and analyzed by LC-MS/MS, and the residual percentage was calculated.
# T1 sequence (Q06187 whole entry): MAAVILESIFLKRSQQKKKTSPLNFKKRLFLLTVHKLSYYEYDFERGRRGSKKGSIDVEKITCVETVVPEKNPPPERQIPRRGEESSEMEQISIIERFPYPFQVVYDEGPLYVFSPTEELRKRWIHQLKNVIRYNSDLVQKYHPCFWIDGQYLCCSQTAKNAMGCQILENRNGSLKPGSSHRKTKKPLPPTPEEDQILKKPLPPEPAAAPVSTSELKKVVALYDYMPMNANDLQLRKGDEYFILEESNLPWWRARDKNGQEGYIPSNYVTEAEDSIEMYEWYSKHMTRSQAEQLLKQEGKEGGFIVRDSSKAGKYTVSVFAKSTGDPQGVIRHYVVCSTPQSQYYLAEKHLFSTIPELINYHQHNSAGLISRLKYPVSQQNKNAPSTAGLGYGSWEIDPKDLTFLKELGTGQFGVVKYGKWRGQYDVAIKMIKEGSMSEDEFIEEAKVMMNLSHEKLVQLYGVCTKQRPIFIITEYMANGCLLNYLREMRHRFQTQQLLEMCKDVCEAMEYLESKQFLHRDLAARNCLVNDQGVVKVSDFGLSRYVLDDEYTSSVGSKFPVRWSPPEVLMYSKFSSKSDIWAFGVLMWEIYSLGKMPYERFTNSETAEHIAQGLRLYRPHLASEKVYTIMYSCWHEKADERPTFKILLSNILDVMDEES
# Sequence of BTK(WT) (Q06187 whole entry): as above
IC50 (BTK(WT)) [nM],IC50 [1] [nM],Human (HLM) Remaining % (T = 60 min) [2] [%],Structure (SMILES)
52.1,30,89,"CC#CC(=O)N1[C@@H]2COC[C@@H]2C[C@H]1c1nc(-c2ccc(C(=O)Nc3ccccn3)cc2)c2c(N)nccn12 [Compound I-1, 4-(8-amino-3-((2S,3aR,6aS)-1-(but-2-ynoyl)hexahydro-1H-furo[3,4-b]pyrrol-2-yl)imidazo [1,5-a]pyrazin-1-yl)-N-(pyridin-2-yl)benzamide]"
21.4,25,74,"C=CC(=O)N1[C@@H]2COC[C@@H]2C[C@H]1c1nc(-c2ccc(C(=O)Nc3ccccn3)cc2)c2c(N)nccn12 [Compound I-3, 4-(3-((2S,3AR,6AS)-1-ACRYLOYLHEXAHYDRO-1H-FURO[3,4-B]PYRROL-2-YL)-8-AMINOIMIDAZO [1,5-A]PYRAZIN-1-YL)-N-(PYRIDIN-2-YL)BENZAMIDE]"
12.4,66,15,"CC#CC(=O)N1[C@@H]2COC[C@@H]2C[C@H]1c1nc(-c2ccc(C(=O)Nc3cc(C(F)(F)F)ccn3)cc2F)c2c(N)nccn12 [Compound I-4, 4-(8-AMINO-3-((2S,3AR,6AS)-1-(BUT-2-YNOYL)HEXAHYDRO-1H-FURO[3,4-B]PYRROL-2-YL)IMIDAZO[1,5-A]PYRAZIN-1-YL)-3-FLUORO-N-(4-(TRIFLUOROMETHYL)PYRIDIN-2-YL)BENZAMIDE]"
9.7,52,29.9,"Nc1nccn2c([C@@H]3C[C@H]4COC[C@H]4N3C(=O)C3CC3)nc(-c3ccc(C(=O)Nc4cc(C(F)(F)F)ccn4)cc3F)c12 [Compound I-7, 4-(8-AMINO-3-((2S,3AR,6AS)-1-(CYCLOPROPANECARBONYL)HEXAHYDRO-1H-FURO[3,4-B]PYRROL-2-YL)IMIDAZO[1,5-A]PYRAZIN-1-YL)-3-FLUORO-N-(4-(TRIFLUOROMETHYL)PYRIDIN-2-YL)BENZAMIDE]"
